Experimental data published in US11517581B2, “Zika virus protease inhibitors and methods of use thereof” (priority 2017, dated 2022).
Converted amounts (≈) assume the structure as drawn.

What was measured:
ZIKV NS2B-NS3 protease [1] = target: T1, ZIKV NS2B-NS3 protease (Zika virus, UniProt A0A024B7W1, DEL1468-1502); type: biochemical; details: 10 μM substrate, 5 nM protease
ZIKV NS2B-NS3 protease [2] = target: T1, ZIKV NS2B-NS3 protease; assay: Enzyme kinetic experiments, mode of protease inhibition; type: biochemical; details: 5 nM protease, substrate 0-100 μM, drug 0-1000 μg/ml; global R^2=0.99
Experimental: Hydrogen bonds and hydrophobic contact areas are represented by dashed lines and the two brackets, respectively. The main interacting residues are labeled. The dashed lines represent bonds between hydrogen and acceptor atoms that are involved. […] In the assay, concentration of ZIKV NS2B-NS3 protease was fixed as 5 nM, while different concentrations of substrate (100, 50, 25, 12.5, 6.25, 3.125 and 0 μM) were added to plot the enzyme kinetic curves. Four concentrations of the drug (1000, 250, 62.5 and 0 μg/ml) were tested individually against the different concentrations of substrate. The experiments were repeated twice for confirmation. The data were analyzed for mode of inhibition by GraphPad Prism 6 in the module of enzyme kinetics. R^2>0.95 was considered as statistically significant.
To explore the mode of protease inhibition, enzyme kinetic experiments were performed in the presence or absence of the drug.

[3] = Cell viability (MTT) assay in Vero cells; type: cell-based; details: African green monkey
Experimental: Briefly, Vero or Huh-7 cells (4×10^4 cells/well) were incubated with different concentrations of individual drug for 24 h, followed by the addition of 10 μl/well of 5 mg/ml MTT substrate. The monolayers were incubated as above for 4 h (away from light). Finally, 100 μl of 10% sodium dodecyl sulfate (SDS) with 0.01M HCl was added and further incubated at 37° C. with 5% CO2 overnight. […] Briefly, the drug compounds were diluted with serum-free MEM and added to confluent Vero cells in 96-well culture plates (4×10^4 cells/well) in triplicate for 2 h at 37° C. After incubation, the drug-containing media were removed, and ZIKV (multiplicity of infection, MOI=0.0002) was added together with fresh drug-compound media to each well. Following 1 h of adsorption at 37° C., the virus-compound mixture was removed and the cells were washed twice with MEM to remove unbound virus. Subsequently, media with antiviral compounds were added to the cells for further incubation for 6 days at 37° C. in a 5% CO2 humidified environment. CPE was examined by inverted light microscopy (Chan et al., 2016b). Thereafter, MTT substrate and SDS-HCl were added sequentially as mentioned above. The half maximal inhibitory concentration (IC50) and CC50 were calculated using Sigma plot (SPSS) in an Excel add-in ED50V10.

[4] = test system: ZIKV (Puerto Rico strain PRVABC59) in Vero cells; assay: Viral load reduction assay, Vero cells; type: cell-based, Zika virus; details: culture supernatants
Experimental: A clinical isolate of ZIKV (Puerto Rico strain PRVABC59) obtained from a patient in the recent South American epidemic was kindly provided by Brandy Russell and Barbara Johnson, Centers for Disease Control and Prevention, USA. The virus was cultured and titrated as we previously described with slight modifications (Chan et al., 2016b; Zhou et al., 2014). The virus was amplified by three additional passages in Vero cells (ATCC) in minimum essential medium (MEM) supplemented with 1% fetal bovine serum (FBS, Gibco™, Life Technologies Corporation, Massachusetts, USA) and 100 units/ml penicillin plus 100 μg/ml streptomycin to make working stocks of the virus (4×10^6 50% tissue culture infectious dose (TCID50)/ml). For virus titration, aliquots of ZIKV were applied on confluent Vero cells in 96-well plates for the TCID50 assay as was previously described with slight modifications (Chan et al., 2016b; Zhou et al., 2014). Briefly, serial 10-fold dilutions of ZIKV were inoculated in a Vero cell monolayer in quadruplicate and cultured in penicillin/streptomycin-supplemented MEM and 1% FBS. […] Viral titer was calculated using the Reed and Munch endpoint method. One TCID50 was interpreted as the amount of virus that causes cytopathic effect in 50% of inoculated wells.

T1 sequence (A0A024B7W1 1502-1672, added parts left off, stated change not applied): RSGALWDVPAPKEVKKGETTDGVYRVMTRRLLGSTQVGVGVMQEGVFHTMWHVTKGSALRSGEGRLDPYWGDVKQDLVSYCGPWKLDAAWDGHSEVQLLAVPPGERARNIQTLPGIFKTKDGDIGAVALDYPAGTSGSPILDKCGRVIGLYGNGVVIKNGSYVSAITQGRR

CO[C@@H]1[C@@H](OC(N)=O)[C@@H](O)[C@H](Oc2ccc3c(O)c(NC(=O)c4ccc(O)c(CC=C(C)C)c4)c(=O)oc3c2C)OC1(C)C [Novobiocin]
Effect of increasing drug concentrations on protease activity (ZIKV NS2B-NS3 protease [1]): dose-dependent reduction in protease activity | Mode of protease inhibition (ZIKV NS2B-NS3 protease [2]): competitive | CC50 at 24 h [3]: 850 µg/mL (≈ 1390 µM) | Reduction in virus titer [4]: dose-dependent reduction in virus titer
